# Like-named read-outs stand apart in the source and are kept apart here.
# How the values were obtained:
# [1] = biological target: T1, human somatostatin receptor subtype 2 (Homo sapiens, UniProt P30874); assay: cAMP assay for SST2R (inhibition of cAMP via human SST2 receptor); format: cell-based; details: Table B, read-out: SST2 potency
# T1 construct: expressed in transfected cells
# Text: cAMP Assay Protocol for SST2R:
# [2] = biological target: T2, human somatostatin receptor subtype 3 (Homo sapiens, UniProt P32745); assay: cAMP assay for SST3R (inhibition of cAMP via human SST3 receptor); format: cell-based; details: from inhibition of cAMP via human SST5 receptor and human SST3 receptor
# T2 construct: expressed in transfected cells
# T2 sequence (P32745 whole entry): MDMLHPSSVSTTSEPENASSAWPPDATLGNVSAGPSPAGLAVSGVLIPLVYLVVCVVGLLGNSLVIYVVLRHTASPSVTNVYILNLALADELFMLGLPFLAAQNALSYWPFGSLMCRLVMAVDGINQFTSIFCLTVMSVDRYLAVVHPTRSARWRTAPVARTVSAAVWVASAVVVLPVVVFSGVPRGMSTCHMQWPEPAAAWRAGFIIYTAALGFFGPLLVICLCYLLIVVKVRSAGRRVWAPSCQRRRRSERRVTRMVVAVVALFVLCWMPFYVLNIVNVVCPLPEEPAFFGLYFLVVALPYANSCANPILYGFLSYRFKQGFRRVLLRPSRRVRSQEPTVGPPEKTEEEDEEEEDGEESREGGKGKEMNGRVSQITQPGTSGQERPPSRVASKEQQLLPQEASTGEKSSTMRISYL
# Text: cAMP Assay Protocol for SST3R:
# [3] = biological target: T3, human somatostatin receptor subtype 4 (Homo sapiens, UniProt P31391); assay: cAMP assay for hSST4R (inhibition of cAMP via human SST4 receptor); format: cell-based; details: from inhibition of cAMP via human SST5 receptor and human SST4 receptor
# T3 construct: expressed in transfected cells
# T3 sequence (P31391 whole entry): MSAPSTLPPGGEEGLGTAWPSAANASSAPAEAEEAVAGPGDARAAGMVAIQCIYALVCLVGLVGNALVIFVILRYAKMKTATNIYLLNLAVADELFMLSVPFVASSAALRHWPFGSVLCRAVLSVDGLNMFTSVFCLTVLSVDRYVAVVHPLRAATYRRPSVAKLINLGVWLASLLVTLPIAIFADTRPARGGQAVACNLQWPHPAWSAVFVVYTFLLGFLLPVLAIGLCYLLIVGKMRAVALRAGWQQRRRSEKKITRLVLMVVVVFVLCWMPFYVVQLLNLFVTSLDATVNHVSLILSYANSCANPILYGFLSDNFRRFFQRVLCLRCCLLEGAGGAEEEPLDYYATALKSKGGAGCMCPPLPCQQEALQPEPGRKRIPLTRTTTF
# Text: cAMP Assay Protocol hSST4R:
# [4] = Liver microsomal stability assay; format: in vitro ADME; details: both sexes, human, pooled human liver microsomes; read-out: HLM Stability t½
# Protocol: Example B-2: Liver Microsomal Stability Assay Protocol
# The in vitro stabilities of compounds of interest were determined for various species using pooled male and female human, pooled male Sprague-Dawley rat, pooled male Cynomolgus monkey, and pooled male Beagle dog liver microsomes at microsomal protein concentrations of 0.5 mg/mL. Incubations were carried out in a potassium phosphate buffer (50 mM). The NADPH-generating system was composed of NADP+ (1 mM), magnesium chloride (3 mM), EDTA (1 mM), glucose-6-phosphate (5 mM) and glucose-6-phosphate dehydrogenase (1 Unit/mL) for all experiments. Compounds of interest in DMSO/acetonitrile were added to achieve a final incubation concentration of 1 μM (final DMSO content was 0.1% v/v and final acetonitrile content was 0.9%). The final incubation volume was 400 μL. Incubations were conducted at 37° C. for 0, 5, 10, 20, 40 and 60 minutes in a shaking water bath and terminated by removing 50 μL of incubation mixture and adding to 100 μL of ice cold acetonitrile containing internal standard. Following precipitation by centrifugation at 3500 rpm and 4° C. for 30 minutes, compounds of interest and internal standard were analyzed in the resultant supernatant using a multiple reaction monitoring (MRM) LC-MS/MS method. MS conditions were optimized for each analyte.
# (§1) Table E illustrates representative human liver microsomal stability and time dependent CYP2D6 inhibition (TDI) of exemplary compounds.
# [5] = biological target: T4, Cytochrome P450 (CYP) 2D6 enzyme (Homo sapiens, UniProt P10635); assay: Cytochrome P450 (CYP) 2D6 enzyme time dependent inhibition (TDI) assay; format: in vitro ADME; details: human liver microsomes
# T4 construct: using pooled male and female human liver microsomes; from tissue; host or cells: pooled male and female human liver microsomes
# T4 sequence (P10635 whole entry): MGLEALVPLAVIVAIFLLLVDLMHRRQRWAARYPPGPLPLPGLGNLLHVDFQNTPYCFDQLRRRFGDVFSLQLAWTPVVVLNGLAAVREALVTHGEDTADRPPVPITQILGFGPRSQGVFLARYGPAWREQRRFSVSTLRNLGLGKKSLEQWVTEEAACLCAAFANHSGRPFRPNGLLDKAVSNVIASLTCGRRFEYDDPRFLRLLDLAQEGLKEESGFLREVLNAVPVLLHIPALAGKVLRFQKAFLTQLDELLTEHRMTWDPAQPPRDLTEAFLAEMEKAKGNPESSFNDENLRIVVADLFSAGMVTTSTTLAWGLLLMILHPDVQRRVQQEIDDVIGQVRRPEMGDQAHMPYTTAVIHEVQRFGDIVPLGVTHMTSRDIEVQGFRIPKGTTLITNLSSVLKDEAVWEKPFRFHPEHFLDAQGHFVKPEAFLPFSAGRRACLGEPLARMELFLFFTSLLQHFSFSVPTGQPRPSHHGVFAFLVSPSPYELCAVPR
# Protocol: Example B-3: Cytochrome P450 (CYP) 2D6 Enzyme Time Dependent Inhibition (TDI) Assay Protocol
# The NADPH-generating system mix was composed of potassium phosphate buffer pH 7.4 (50 mM), NADP+ (1 mM), magnesium chloride (3 mM), EDTA (1 mM), glucose-6-phosphate (5 mM), glucose-6-phosphate dehydrogenase (1 Unit/mL), human liver microsomes (0.1 mg/mL) and water. Compounds of interest in DMSO serial diluted to six different concentrations (final DMSO content of 0.1% v/v) were added to the NADPH-generating system. CYP 2D6 substrate Dextromethorphan was added at a final incubation concentration of 5 μM. The final incubation volume was 200 μL. Incubations were conducted at 37° C. for 10 minutes in a shaking water bath to evaluate the drug candidates as […] of CYP 2D6. In a separate test plate, drug candidates were pre-incubated at 37° C. for 30 minutes in a shaking water bath in NADPH-generating system mix in the absence of Dextromethorphan substrate to allow for the formation of metabolites. This plate was removed from the water bath and placed on ice for 5 minutes. Dextromethorphan substrate was then added and the plate was incubated at 37° C. for 10 minutes in a shaking water bath to determine if any metabolites formed during the 30 minute pre-incubation inhibit the CYP 2D6 enzyme. All incubations were terminated by removing 50 μL of incubation mixture and adding to 200 μL of ice cold acetonitrile containing internal standard. Following precipitation by centrifugation at 3500 rpm and 4° C. for 30 minutes, the resultant supernatant were analyzed by using a multiple reaction monitoring (MRM) LC-MS/MS method detecting for internal standard and the CYP 2D6 enzyme mediated Dextromethorphan O-demethylation metabolite Dextrorphan and IC50 values were determined.
# as §1
# [6] = biological target: human somatostatin receptor subtype 5 (Homo sapiens, UniProt P35346); assay: cAMP assay for SST5R (inhibition of cAMP via human SST5 receptor); details: for Fold selectivity for SST5 vs SST2: SST5 over SST2, class symbols
# Chain of human somatostatin receptor subtype 5 (P35346 whole entry): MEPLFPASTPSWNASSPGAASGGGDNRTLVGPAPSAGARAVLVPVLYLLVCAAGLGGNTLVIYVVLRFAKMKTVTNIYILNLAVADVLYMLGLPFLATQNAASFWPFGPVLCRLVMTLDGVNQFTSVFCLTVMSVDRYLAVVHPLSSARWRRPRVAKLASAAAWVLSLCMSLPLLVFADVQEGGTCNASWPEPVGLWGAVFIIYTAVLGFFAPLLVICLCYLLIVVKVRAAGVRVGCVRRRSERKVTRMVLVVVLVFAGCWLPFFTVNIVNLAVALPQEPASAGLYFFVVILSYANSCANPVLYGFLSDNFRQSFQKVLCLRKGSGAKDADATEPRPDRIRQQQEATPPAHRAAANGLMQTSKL
# Protocol: cAMP Assay Protocol for SST5R:
# The cells are cultured at 37° C., 5% CO2 and 95% humidity. […] The cells are incubated for 20 minutes at 37° C. […] The cells are treated with 50 μL of lysis buffer (HRTF cAMP kit, Cisbio) for 30 minutes and then the lysate is diluted to 250 μL with assay buffer. The lysate is transferred to 384-well plates and cAMP detection and visualization antibodies are added and incubated for 1-24 hours at room temperature. The time-resolved fluorescent signal is read with a Tecan M1000Pro multiplate reader. The intracellular cAMP concentrations are calculated by regression to a standard curve and are plotted vs. the concentration of the compounds of the invention and the EC50 of the compounds are calculated using standard methods. All data manipulations are in GraphPad Prism v6 or v7.
# [7] = t = 0 min pre-incubation, read-out: CYP2D6 inhibition, IC50 (μM) t = 0 min
# [8] = t = 30 min pre-incubation, read-out: CYP2D6 inhibition, IC50 (μM) t = 30 min
# [9] = read-out: SST5 potency, inhibition of cAMP via human SST5 receptor, Table B
# T1 sequence (P30874 whole entry): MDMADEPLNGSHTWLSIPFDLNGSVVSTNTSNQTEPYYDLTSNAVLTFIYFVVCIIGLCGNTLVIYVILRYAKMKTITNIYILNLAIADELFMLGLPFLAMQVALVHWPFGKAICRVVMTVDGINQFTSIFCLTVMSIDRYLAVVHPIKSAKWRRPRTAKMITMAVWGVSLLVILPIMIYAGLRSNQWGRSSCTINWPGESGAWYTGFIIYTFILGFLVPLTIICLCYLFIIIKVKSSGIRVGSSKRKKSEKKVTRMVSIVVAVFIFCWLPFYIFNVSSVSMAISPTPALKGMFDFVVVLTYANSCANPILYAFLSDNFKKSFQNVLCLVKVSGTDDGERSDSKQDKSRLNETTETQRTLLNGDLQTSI
SMILES,EC50 [1] [nM],Fold selectivity for SST5 vs SST3 [2] [fold],Fold selectivity for SST5 vs SST4 [3] [fold],half-life at 1 μM [4] [min],"IC50 [5, 7] [µM]","IC50 [5, 8] [µM]",EC50 [6] [nM],Fold selectivity for SST5 vs SST2 [6],"EC50 [6, 9] [nM]"
"COc1cc(F)cc(-c2cncc(-c3nc4c(C)cccc4[nH]3)c2N2CC[C@H](N)C2)c1 [Compound 2-184, (3S)-1-[3-(3-fluoro-5-methoxyphenyl)-5-(4-methyl-1H-1,3-benzodiazol-2-yl)pyridin-4-yl]pyrrolidin-3-amine]",100 to 1000,7.0,1.4,58,4.2,2.5,< 10,++ (++=100 to 499),< 10
"Cc1cccc2nc(-c3cncc(-c4cc(F)cc(C(F)(F)F)c4)c3N3CC[C@H](N)C3)[nH]c12 [Compound 2-185, (3S)-1-{3-[3-fluoro-5-(trifluoromethyl)phenyl]-5-(4-methyl-1H-1,3-benzodiazol-2-yl)pyridin-4-yl}pyrrolidin-3-amine]",100 to 1000,6.1,1.2,77,9.5,2.3,< 10,++ (++=100 to 499),< 10
"C[C@]1(N)CCN(c2c(-c3ccnc(C(F)(F)F)c3)cncc2-c2nc3c(F)cccc3[nH]2)C1 [Compound 2-186, (3S)-1-[5-(4-fluoro-1H-1,3-benzodiazol-2-yl)-2′-(trifluoromethyl)-[3,4′-bipyridin]-4-yl]-3-methylpyrrolidin-3-amine]",100 to 1000,158,–,347,5.4,1.1,< 10,+++ (+++=≥500),< 10

# Further lines, results first:
EC50 [1] [nM],Fold selectivity for SST5 vs SST3 [2] [fold],Fold selectivity for SST5 vs SST4 [3] [fold],half-life at 1 μM [4] [min],"IC50 [5, 7] [µM]","IC50 [5, 8] [µM]",EC50 [6] [nM],Fold selectivity for SST5 vs SST2 [6],"EC50 [6, 9] [nM]",SMILES
100 to 1000,6.7,4.0,77,6.4,3.5,< 10,++ (++=100 to 499),< 10,"Cc1cccc2nc(-c3cncc(-c4cc(F)cc(Cl)c4)c3N3CC[C@H](N)C3)[nH]c12 [Compound 2-183, (3S)-1-[3-(3-chloro-5-fluorophenyl)-5-(4-methyl-1H-1,3-benzodiazol-2-yl)pyridin-4-yl]pyrrolidin-3-amine]"
100 to 1000,517,109,> 693,> 10,> 10,< 10,+++ (+++=≥500),< 10,"C[C@]1(N)CCN(c2c(-c3ccnc(C#N)c3)cncc2-c2nc3c(F)cccc3[nH]2)C1 [Compound 2-162, 4-[(3S)-3-amino-3-methylpyrrolidin-1-yl]-5-(4-fluoro-1H-1,3-benzodiazol-2-yl)-[3,4′-bipyridine]-2′-carbonitrile]"
100 to 1000,6.3,0.94,53,7.6,6.5,< 10,++ (++=100 to 499),< 10,"Cc1cc(F)cc(-c2cncc(-c3nc4cccc(C)c4[nH]3)c2N2CC[C@H](N)C2)c1 [Compound 2-182, (3S)-1-[3-(3-fluoro-5-methylphenyl)-5-(4-methyl-1H-1,3-benzodiazol-2-yl)pyridin-4-yl]pyrrolidin-3-amine]"
10 to 100,5.1,1.0,173,4.7,1.8,< 10,+ (+=10 to 99),< 10,"Cc1cccc2nc(-c3cncc(-c4cc(F)cc(F)c4)c3N3CC[C@H](N)C3)[nH]c12 [Compound 2-201, (3S)-1-[3-(3,5-difluorophenyl)-5-(4-methyl-1H-1,3-benzodiazol-2-yl)pyridin-4-yl]pyrrolidin-3-amine]"

# Source: US11608335B2, “Somatostatin modulators and uses thereof” (CRINETICS PHARMACEUTICALS, INC., priority 2018, dated 2023)
